Calls of active or inactive are those of the source. How the calls were made is not given here. A value given as a limit tells only on which side of the number the result lay.

This test relates to Trypanosoma brucei growth inhibition, luminescence. The test can be described thus: Trypanosoma brucei growth inhibition, luminescence (AID 1159562).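 Further: parasites grew with compound for 24 h before the luminescence read.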
Regarding `Cc1cc(Br)cc(C(=O)c2c(C(C)C)c(=O)[nH]c(=O)n2Cc2ccnc(N)c2)c1`, the IC50 (usually the concentration at which inhibition is half-maximal) is 25 µM. As for `N#Cc1ccc(Br)cc1[N+](=O)[O-]`, the IC50 is 0.2 µM. As to `COc1cc(OC)cc(C(NS(=O)(=O)c2ccc(Cl)c(C(F)(F)F)c2)c2nccn2C)c1` (stereo not drawn), the IC50 was 7.9 µM.

Regarding `COc1ccc2ncc(Cl)c(CCN3CC[C@@H](NCc4cc5c(cn4)OCS5)[C@H](O)C3)c2n1`, the IC50 is 0.4 µM.

`Cc1ccc(NC(=O)c2ccc(Cl)c(NC(=O)c3ccc([N+](=O)[O-])cc3)c2)cc1`: the IC50 was 16 µM. The value for `O=c1[nH]c(C=Cc2cccc(OCCOc3ccccc3)c2)nc(O)c1[N+](=O)[O-]` was 10 µM; that for `Nc1ncnc2c1ncn2[C@@H]1O[C@H](CO)C[C@H]1O` was 0.01 µM; that for `O=C(NNC(=O)c1ccccn1)c1ccc(-c2ccccc2)cc1` was 0.63 µM. With `Cn1c(CN2CCN(c3ncc(C(F)(F)F)cc3Cl)CC2)nc2ccncc21` the figure was > 40 µM (inactive). Consider `O=C(c1cccc(Nc2ncc(-c3ccc4c(c3)OCO4)cn2)c1)N1CCOCC1`, for which the IC50 was > 50 µM (inactive).

Take `CC(C)(C)Nc1nc(-c2ccccn2)nc2ccccc12`: the IC50 is 6.3 µM. Regarding `COc1cc(Nc2nccc(Nc3onc(C)c3C)n2)cc(S(=O)(=O)C2CCOCC2)c1`, the IC50 was 0.5 µM.

Take `O=C(CN(c1cccc(C(F)(F)F)c1)S(=O)(=O)c1ccc(Cl)cc1)NCc1ccc(F)c(F)c1`: the IC50 is 25 µM. `Cc1cccc(NS(=O)(=O)c2cnc3sc(C)cn3c2=O)c1`: the IC50 is > 40 µM (inactive). The value for `OCCCNc1nc(Nc2ccncc2)nc2ccccc12` was > 40 µM (inactive). Consider `CC(C)n1c(-c2nonc2N)nc2cccc(OCCN3CCCC3)c21`, for which the IC50 is 0.79 µM. With `OCC1CCCCN1c1cc(-c2ccccn2)nc(Nc2ccccc2)n1` (stereo not drawn) the figure was 6.3 µM; with `CCCCc1cc(Nc2cc(C3CCC3)[nH]n2)nc(N2CCC2C(N)=O)n1` (stereo not drawn), 0.16 µM; with `CCN(Cc1cccs1)C(=O)CSc1nnc(-c2ccc3c(c2)OCO3)o1`, > 40 µM (inactive). The value for `c1ccc(-c2nc(NC3CCCC3)c3ccccc3n2)nc1` was 6.3 µM; that for `O=C(NCCc1cccnc1)c1ccc(-c2ccccc2F)o1` was > 40 µM (inactive).

As for `CCC(c1ccc(F)cc1)n1cncc1-c1cnn(C)c1` (stereo not drawn), the IC50 is > 40 µM (inactive).

In the case of `O=C(Cc1ccc2c(c1)CCC2)Nc1n[nH]c(-c2ccccn2)n1`, the IC50 is > 40 µM (inactive). Regarding `O=C(Nc1ccc(S(=O)(=O)N2CCCC2)cc1)c1ccc([N+](=O)[O-])s1`, the IC50 is 0.2 µM. With `Cc1cc(NC(=O)C2CCCCC2)n(-c2nc3c(c(=O)[nH]2)CCC3)n1`, the IC50 was 0.16 µM. With `Cn1ccnc1CN1CCc2[nH]cnc2C1c1ccccc1OCc1ccccc1` (stereo not drawn) the figure was 0.5 µM; with `COc1ccc(-c2cc(C)no2)cc1S(=O)(=O)Nc1ccc(F)c(Cl)c1`, 25 µM; with `Cc1cc(NC(=O)c2ccc([N+](=O)[O-])s2)ccc1Br`, 5 µM. `CCc1cc(C(=O)Nc2nccn2-c2ccccc2)cs1`: the IC50 was 4 µM. `CN(C)S(=O)(=O)c1cccc(C(=O)Nc2nc(-c3ccccn3)cs2)c1`: the IC50 was 0.63 µM. With `CS(=O)(=O)NC1CCC(Nc2ncc(Br)c(Nc3ccccc3C(N)=O)n2)CC1` (stereo not drawn), the IC50 was 0.079 µM. The value for `Cc1ccc2sc(NC(=O)Cn3cnc([N+](=O)[O-])n3)nc2c1` was > 40 µM (inactive); that for `Cc1cc2cc(CNc3ccc4c(c3)OCO4)c(=O)n(CCO)c2cc1C` was > 40 µM (inactive); that for `COCCn1cnc2cc(NC(=O)C3CCCCC3)cc(C(=O)N3CCc4sccc4C3)c21` was 1 µM. The value for `Cc1ccc(CNC2CCN(C[C@@H]3Cn4c(=O)ccc5ccc(=O)n3c54)CC2)cc1F` was 2 µM; that for `Cc1nc2nc(C)c(Cc3ccc(C(C)C)cc3)c(=O)n2[nH]1` was > 40 µM (inactive); that for `O=C1CCCCCC1(Cc1cnc[nH]1)c1ccc(Cl)cc1Cl` (stereo not drawn) was > 40 µM (inactive). As for `Cn1nccc1NC(=O)Cn1ccc(-c2ccncc2)n1`, the IC50 was 0.63 µM. The value for `O=C(Nc1cccc(Cl)c1)Nc1ccc([N+](=O)[O-])cc1Cl` was 3.2 µM. On to `CC(C)(C)Nc1nc(Nc2ccc3c(c2)CS(=O)(=O)C3)nc2[nH]ccc12`, for which the IC50 is 5 µM.

With `CC(C(=O)Nc1ccc(Br)cc1)N1CCN(c2ccc([N+](=O)[O-])cc2)CC1` (stereo not drawn), the IC50 is > 40 µM (inactive). The value for `CCOC(=O)c1noc(N)c1-c1ccccc1` was 0.63 µM; that for `Cc1ccc2c(c1)SC(C(=O)Nc1n[nH]c(-c3ccccn3)n1)C2` (stereo not drawn) was > 40 µM (inactive). With `Cn1nc([N+](=O)[O-])nc1N1CCCCC1` the figure was > 40 µM (inactive); with `O=C(c1cccc(Cl)c1Cl)N1CCn2c1nc(-c1ccncc1)cc2=O`, 32 µM; with `COc1ccc2ncc(F)c(NC(=O)C3(O)CCC(NCc4ccc5c(c4)OCCO5)CC3)c2n1` (stereo not drawn), 1.6 µM.

Take `COc1ccc(C(=O)[C@H]2C[C@@H]2CN(Cc2ccccn2)Cc2ccccn2)cc1`: the half-inhibitory concentration (IC50) was 16 µM. Turning to `CCN(CC)S(=O)(=O)c1ccc(C(=O)Nc2cc(C)nn2-c2nc(C)c(C)c(=O)[nH]2)cc1`, the IC50 was 0.32 µM.

Take `Cc1ccc(Nc2nc(-c3ccccn3)cc(N3CCCC(O)C3)n2)cc1` (stereo not drawn): the IC50 was 3.2 µM. The value for `Cn1ccnc1-c1nc(NCc2ccccc2Cl)cc(C2CC2)n1` was 1.6 µM; that for `COc1ccc(Nc2nc(NC3CCC(O)CC3)ncc2Br)c(C(N)=O)c1` (stereo not drawn) was 0.25 µM; that for `COc1ccc(C2CC(c3ccccc3Cl)=NN2C(=O)CNC(=O)C2CCCC2)cc1` (stereo not drawn) was 0.79 µM. As to `Cc1nn(C)c(Cl)c1CN(Cc1cccnc1)Cc1ccsc1`, the IC50 was > 40 µM (inactive).

As for `Fc1ccc(Nc2nc(-c3ccccn3)cs2)cc1`, the IC50 is 25 µM. With `COc1ccc2ncc(Cl)c(CCN3CC[C@H](NCc4cc5c(cn4)OCS5)[C@@H](O)C3)c2n1` the figure was 0.63 µM; with `CNC(=O)C1Cc2ccccc2N1C(=O)COc1cccc(OC)c1` (stereo not drawn), 1 µM. In the case of `Fc1ccccc1N1C[C@H]2CCN(c3cccnc3)C[C@H]2C1`, the IC50 is > 40 µM (inactive). The value for `COCc1cc(Nc2ccc(Cl)cc2)nc(-c2ccccn2)n1` was > 40 µM (inactive); that for `Cn1cc(CN2CCN(c3ccc4c(c3)CCN(C(=O)[C@H]3C[C@@H]3c3ccccc3)CC4)CC2)cn1` was 40 µM.

Regarding `COc1ccc(CN(C)Cc2ccncc2)cc1-c1ccc(S(=O)(=O)NC2CCC2)s1`, the IC50 was 20 µM. The value for `O=C(Nc1cccc(F)c1)N1CCC(Oc2cccc(-c3cccnc3)c2)CC1` was > 40 µM (inactive); that for `CN(C)S(=O)(=O)c1ccc(-c2cnc(N)c(-c3nc4ccc(F)cc4[nH]3)c2)cc1` was 1 µM. `CCN(Cc1nc2ccc(C(=O)N3CCN(c4ncccn4)CC3)cc2[nH]1)C1CCCc2cccnc21` (stereo not drawn): the IC50 is 5 µM.

Take `O=C1OCc2ccc(Nc3nccc(-c4cnn5ncccc45)n3)cc21`: the IC50 is 0.02 µM. With `CC(C)(C)c1cc(NC2CC2)nc(-c2ccccn2)n1` the figure was 2.5 µM; with `CC(C)Oc1cccc(N2CCC(C(=O)N3CCCN(C(C)C)CC3)CC2)c1`, > 40 µM (inactive). With `CCCc1nc2nc(N)nc(N)c2cc1CC` the figure was 25 µM. The value for `COc1ccc(-c2csc(NC(=O)c3ccc([N+](=O)[O-])s3)n2)cc1` was 0.79 µM. Turning to `CN(C)Cc1ccc(N2CCC(NS(=O)(=O)c3ccc(Cl)cc3)CC2)cc1`, the IC50 is 32 µM. With `NC(N)=Nc1nc(-c2ccc(NC(N)=NCCN3CCCC3)cc2)cs1` the figure was 0.1 µM; with `CN(Cc1ccccc1)Cc1nnnn1C1CCN(Cc2ccc(-n3ccnc3)cc2)CC1`, > 40 µM (inactive). The value for `Cc1ccc(Nc2nc(N)nc(CNC(c3nc4ccccc4[nH]3)C(C)C)n2)cc1` (stereo not drawn) was 5 µM; that for `CNc1cc(C)nc(C2CN(C(=O)c3n[nH]c4ccccc34)CCO2)c1` (stereo not drawn) was > 40 µM (inactive). Take `COc1ccc(NC(=O)c2ccc(NC(=O)CN(c3ccccc3C)S(C)(=O)=O)cc2)cc1`: the IC50 is 0.79 µM. With `O=C(Cc1ccccc1)Nc1ccccc1C(=O)Nc1nccs1` the figure was 0.25 µM; with `Nc1nc(-c2ccccn2)nc(-n2nc(-c3ccccc3)cc2N)n1`, 3.2 µM; with `O=C(NCCc1csc(-c2ccc(F)cc2)n1)c1cccs1`, 0.2 µM. In the case of `COc1ccc2c(Cl)c(C(=O)N3CCC3)sc2c1Cl`, the IC50 was > 40 µM (inactive). The value for `CCOc1cc(NCCCN2CCN(C)CC2)c2ncccc2c1` was 20 µM. `Cc1[nH]nc2c1C(c1ccc(OCc3ccccc3F)cc1)SCC(=O)N2` (stereo not drawn): the IC50 is > 40 µM (inactive). The value for `COc1cccc(S(=O)(=O)Nc2ccc3c(c2)CC(N2CCC(NC(=O)C4CC4)CC2)C3)c1` (stereo not drawn) was 0.79 µM.

As for `COc1ncc(-c2ccc3nccc(-c4ccncc4)c3c2)cc1NS(=O)(=O)C1CC1`, the half-maximal inhibitory concentration (IC50) was 0.4 µM. The value for `Cc1c(CNC(=O)c2ccc(Cn3cc(Cl)c([N+](=O)[O-])n3)cc2)cnn1C` was 10 µM; that for `O=C(NCc1ccncc1)c1ccccc1N1CCCN(C(=O)Cc2ccc(F)c(F)c2)CC1` was 20 µM; that for `Cc1cccnc1CN1CCN(CCCOc2ccc(-c3ccc(C(N)=O)cc3)cc2)CC1` was > 40 µM (inactive). On to `O=S(=O)(NCC(c1cccnc1)N1CCN(c2ccccc2F)CC1)c1ccc(F)cc1` (stereo not drawn), for which the IC50 is > 40 µM (inactive). The value for `Cc1ccc(NC(C)C(=O)Nc2ccc(C#N)cc2)cc1S(=O)(=O)N1CCCCC1` (stereo not drawn) was 10 µM. As for `COc1cc(OC)cc(C(=O)N[C@@H](CC(C)C)C(=O)NC2(C#N)CC2)c1`, the IC50 is 0.063 µM.

Regarding `O=C(Nc1cccc(S(=O)(=O)Nc2ccc(Br)cc2)c1)c1ccc([N+](=O)[O-])s1`, the IC50 was 0.4 µM.

Regarding `Cc1cc(NC(=O)CC2CCCCC2)n(-c2nc3c(c(=O)[nH]2)CCC3)n1`, the half-inhibitory concentration (IC50) is 0.16 µM. For the compound `Nc1nccc(-c2csc(Nc3ccc(Cl)cc3)n2)n1`, the IC50 is > 40 µM (inactive). For the compound `N#CN1CC[C@@H](NC(=O)Nc2ccccc2Oc2ccccc2)C1`, the half-inhibitory concentration (IC50) was 7.9 µM. Regarding `c1ccc(CNc2cccc3ccncc23)cc1`, the IC50 was > 40 µM (inactive).

The values above are taken from PubChem BioAssay AID1159562 (GlaxoSmithKline (GSK), 2015).
